# From ChEMBL document CHEMBL5154884, “Discovery of a Novel Src Homology-2 Domain Containing Protein Tyrosine Phosphatase-2 (SHP2) and Cyclin-Dependent Kinase 4 (CDK4) Dual Inhibitor for the Treatment of Triple-Negative Breast Cancer” (J Med Chem, 2022)
# Calls of active or inactive are those of the source. No cut-off for these calls is given here.
# How the values were obtained:
# [1] = target: T1, Tyrosine-protein phosphatase non-receptor type 11 (Homo sapiens, UniProt Q06124); assay: Inhibition of SHP2 (unknown origin) using DiFMUP as substrate incubated for 60 mins followed by substrate addition for 30 mins by microplate reader method
# T1 sequence (Q06124 whole entry): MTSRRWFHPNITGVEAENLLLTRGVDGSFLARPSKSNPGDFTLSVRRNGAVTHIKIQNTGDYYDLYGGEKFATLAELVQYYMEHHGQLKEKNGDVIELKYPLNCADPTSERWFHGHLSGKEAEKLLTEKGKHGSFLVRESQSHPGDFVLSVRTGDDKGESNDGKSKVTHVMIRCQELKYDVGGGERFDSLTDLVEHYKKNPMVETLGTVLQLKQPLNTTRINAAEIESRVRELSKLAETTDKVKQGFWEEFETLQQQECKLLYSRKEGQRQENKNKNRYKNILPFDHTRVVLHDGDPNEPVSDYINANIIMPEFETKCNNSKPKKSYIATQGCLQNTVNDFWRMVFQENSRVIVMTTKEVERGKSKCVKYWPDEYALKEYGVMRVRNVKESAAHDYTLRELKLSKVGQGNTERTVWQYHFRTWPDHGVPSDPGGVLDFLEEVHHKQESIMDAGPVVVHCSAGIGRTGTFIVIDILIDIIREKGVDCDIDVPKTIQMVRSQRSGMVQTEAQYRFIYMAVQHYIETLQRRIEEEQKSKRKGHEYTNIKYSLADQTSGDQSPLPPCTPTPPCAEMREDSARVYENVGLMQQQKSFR
# EMT6 [2] = assay: Antiproliferative activity against mouse EMT6 cells assessed as inhibition of cell growth incubated for 48 hrs by MTT assay; type: functional, cell-based; conditions: Mus musculus, EMT6, 48 h
# [3] = target: T1, Tyrosine-protein phosphatase non-receptor type 11; assay: Inhibition of SHP2 PTP domain (unknown origin) using DiFMUP as substrate preincubated for 20 mins followed by substrate addition and measured for 2 hrs by fluorescence based analysis
# [4] = Inhibition of recombinant N-terminal GST/His6-fusion tagged human CDK1/Cyclin B expressed in Sf9 insect cells incubated for 20 mins followed by [33P]gamma-ATP addition and measured after 2 hrs by radiometric HotSpot Kinase assay
# CDK2/Cyclin-E2 = CDK2/Cyclin-E2 (Homo sapiens, UniProt O96020+P24941); assay: Inhibition of recombinant N-terminal GST/His6-fusion tagged human CDK2/Cyclin E2 expressed in Sf9 insect cells incubated for 20 mins followed by [33P]gamma-ATP addition and measured after 2 hrs by radiometric HotSpot Kinase assay
# CDK3/Cyclin E = CDK3/Cyclin E (Homo sapiens, UniProt Q00526); assay: Inhibition of recombinant N-terminal GST/His6-fusion tagged human CDK3/Cyclin E expressed in Sf9 insect cells incubated for 20 mins followed by [33P]gamma-ATP addition and measured after 2 hrs by radiometric HotSpot Kinase assay
# Chain of CDK3/Cyclin E (P24864 whole entry, the tested form may be a part): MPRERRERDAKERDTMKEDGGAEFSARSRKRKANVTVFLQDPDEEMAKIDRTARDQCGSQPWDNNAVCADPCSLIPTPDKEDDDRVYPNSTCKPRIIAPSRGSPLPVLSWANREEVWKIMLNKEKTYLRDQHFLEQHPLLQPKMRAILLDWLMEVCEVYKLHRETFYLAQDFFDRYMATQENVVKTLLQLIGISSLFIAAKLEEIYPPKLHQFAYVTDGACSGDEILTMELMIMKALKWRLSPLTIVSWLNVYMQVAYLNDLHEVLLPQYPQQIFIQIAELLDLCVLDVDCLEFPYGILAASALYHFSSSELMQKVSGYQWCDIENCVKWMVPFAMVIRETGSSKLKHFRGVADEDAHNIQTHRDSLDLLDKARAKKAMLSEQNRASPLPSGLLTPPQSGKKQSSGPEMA
# Chain of CDK3/Cyclin E (Q00526 whole entry, the tested form may be a part): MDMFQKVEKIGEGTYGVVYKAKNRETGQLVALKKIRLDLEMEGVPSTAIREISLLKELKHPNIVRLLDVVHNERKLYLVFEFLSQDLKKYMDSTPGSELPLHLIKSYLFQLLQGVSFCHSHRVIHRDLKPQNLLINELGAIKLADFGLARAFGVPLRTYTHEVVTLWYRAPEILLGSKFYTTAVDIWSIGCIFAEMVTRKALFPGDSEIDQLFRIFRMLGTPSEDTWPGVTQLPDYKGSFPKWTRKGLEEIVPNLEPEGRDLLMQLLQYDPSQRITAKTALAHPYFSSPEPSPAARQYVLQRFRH
# CDK4/Cyclin D3 = CDK4/Cyclin D3 (Homo sapiens, UniProt P11802); assay: Inhibition of recombinant N-terminal GST/His6-fusion tagged human CDK4/Cyclin D3 expressed in Sf9 insect cells incubated for 20 mins followed by [33P]gamma-ATP addition and measured after 2 hrs by radiometric HotSpot Kinase assay
# Chain of CDK4/Cyclin D3 (P11802 whole entry, the tested form may be a part): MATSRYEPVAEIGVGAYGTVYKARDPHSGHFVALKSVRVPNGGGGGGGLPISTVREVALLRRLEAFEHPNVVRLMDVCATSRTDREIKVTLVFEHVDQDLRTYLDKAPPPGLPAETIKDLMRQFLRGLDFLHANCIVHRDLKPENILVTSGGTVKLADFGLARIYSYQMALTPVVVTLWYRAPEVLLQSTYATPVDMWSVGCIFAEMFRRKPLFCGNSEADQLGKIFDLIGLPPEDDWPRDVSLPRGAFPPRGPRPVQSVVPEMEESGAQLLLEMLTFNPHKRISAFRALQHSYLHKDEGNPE
# Chain of CDK4/Cyclin D3 (P30281 whole entry, further chain, the tested form may be a part): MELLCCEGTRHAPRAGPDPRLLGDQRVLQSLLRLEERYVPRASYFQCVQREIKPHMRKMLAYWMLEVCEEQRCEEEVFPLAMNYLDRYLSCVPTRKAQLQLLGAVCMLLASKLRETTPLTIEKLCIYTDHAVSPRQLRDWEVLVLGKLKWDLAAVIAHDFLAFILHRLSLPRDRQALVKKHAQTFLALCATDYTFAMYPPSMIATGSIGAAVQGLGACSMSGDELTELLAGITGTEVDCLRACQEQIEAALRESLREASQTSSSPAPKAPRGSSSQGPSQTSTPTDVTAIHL
# [5] = target: Cyclin-dependent kinase 7/ cyclin H (Homo sapiens, UniProt P50613); assay: Inhibition of CDK7/Cyclin H (unknown origin) incubated for 20 mins followed by [33P]gamma-ATP addition and measured after 2 hrs by radiometric HotSpot Kinase assay; type: protein-complex assay
# Chain of Cyclin-dependent kinase 7/ cyclin H (P51946 whole entry, the tested form may be a part): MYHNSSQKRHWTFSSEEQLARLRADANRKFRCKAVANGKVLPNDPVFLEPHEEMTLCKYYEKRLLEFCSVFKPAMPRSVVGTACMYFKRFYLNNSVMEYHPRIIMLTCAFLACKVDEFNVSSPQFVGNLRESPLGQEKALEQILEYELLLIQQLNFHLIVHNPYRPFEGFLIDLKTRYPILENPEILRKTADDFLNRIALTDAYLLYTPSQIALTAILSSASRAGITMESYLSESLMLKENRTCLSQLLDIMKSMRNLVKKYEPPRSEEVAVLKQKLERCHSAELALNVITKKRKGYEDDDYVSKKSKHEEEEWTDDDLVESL
# Chain of Cyclin-dependent kinase 7/ cyclin H (P50613 whole entry, the tested form may be a part): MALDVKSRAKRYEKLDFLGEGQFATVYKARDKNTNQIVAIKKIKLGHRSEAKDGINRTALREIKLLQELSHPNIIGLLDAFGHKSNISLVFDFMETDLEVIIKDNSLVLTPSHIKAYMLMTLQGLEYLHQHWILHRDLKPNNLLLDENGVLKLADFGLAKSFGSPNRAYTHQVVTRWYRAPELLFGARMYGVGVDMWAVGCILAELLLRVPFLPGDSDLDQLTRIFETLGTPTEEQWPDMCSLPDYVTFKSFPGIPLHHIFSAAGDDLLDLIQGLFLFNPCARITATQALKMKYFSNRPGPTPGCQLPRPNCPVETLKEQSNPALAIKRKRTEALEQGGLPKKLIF
# [6] = target: Cyclin-dependent kinase 13/Cyclin-K (Homo sapiens, UniProt Q14004); assay: Inhibition of recombinant N-terminal GST/His6-fusion tagged human CDK13/Cyclin K expressed in Sf9 insect cells incubated for 20 mins followed by [33P]gamma-ATP addition and measured after 2 hrs by radiometric HotSpot Kinase assay
# Chain of Cyclin-dependent kinase 13/Cyclin-K (Q14004 whole entry, the tested form may be a part): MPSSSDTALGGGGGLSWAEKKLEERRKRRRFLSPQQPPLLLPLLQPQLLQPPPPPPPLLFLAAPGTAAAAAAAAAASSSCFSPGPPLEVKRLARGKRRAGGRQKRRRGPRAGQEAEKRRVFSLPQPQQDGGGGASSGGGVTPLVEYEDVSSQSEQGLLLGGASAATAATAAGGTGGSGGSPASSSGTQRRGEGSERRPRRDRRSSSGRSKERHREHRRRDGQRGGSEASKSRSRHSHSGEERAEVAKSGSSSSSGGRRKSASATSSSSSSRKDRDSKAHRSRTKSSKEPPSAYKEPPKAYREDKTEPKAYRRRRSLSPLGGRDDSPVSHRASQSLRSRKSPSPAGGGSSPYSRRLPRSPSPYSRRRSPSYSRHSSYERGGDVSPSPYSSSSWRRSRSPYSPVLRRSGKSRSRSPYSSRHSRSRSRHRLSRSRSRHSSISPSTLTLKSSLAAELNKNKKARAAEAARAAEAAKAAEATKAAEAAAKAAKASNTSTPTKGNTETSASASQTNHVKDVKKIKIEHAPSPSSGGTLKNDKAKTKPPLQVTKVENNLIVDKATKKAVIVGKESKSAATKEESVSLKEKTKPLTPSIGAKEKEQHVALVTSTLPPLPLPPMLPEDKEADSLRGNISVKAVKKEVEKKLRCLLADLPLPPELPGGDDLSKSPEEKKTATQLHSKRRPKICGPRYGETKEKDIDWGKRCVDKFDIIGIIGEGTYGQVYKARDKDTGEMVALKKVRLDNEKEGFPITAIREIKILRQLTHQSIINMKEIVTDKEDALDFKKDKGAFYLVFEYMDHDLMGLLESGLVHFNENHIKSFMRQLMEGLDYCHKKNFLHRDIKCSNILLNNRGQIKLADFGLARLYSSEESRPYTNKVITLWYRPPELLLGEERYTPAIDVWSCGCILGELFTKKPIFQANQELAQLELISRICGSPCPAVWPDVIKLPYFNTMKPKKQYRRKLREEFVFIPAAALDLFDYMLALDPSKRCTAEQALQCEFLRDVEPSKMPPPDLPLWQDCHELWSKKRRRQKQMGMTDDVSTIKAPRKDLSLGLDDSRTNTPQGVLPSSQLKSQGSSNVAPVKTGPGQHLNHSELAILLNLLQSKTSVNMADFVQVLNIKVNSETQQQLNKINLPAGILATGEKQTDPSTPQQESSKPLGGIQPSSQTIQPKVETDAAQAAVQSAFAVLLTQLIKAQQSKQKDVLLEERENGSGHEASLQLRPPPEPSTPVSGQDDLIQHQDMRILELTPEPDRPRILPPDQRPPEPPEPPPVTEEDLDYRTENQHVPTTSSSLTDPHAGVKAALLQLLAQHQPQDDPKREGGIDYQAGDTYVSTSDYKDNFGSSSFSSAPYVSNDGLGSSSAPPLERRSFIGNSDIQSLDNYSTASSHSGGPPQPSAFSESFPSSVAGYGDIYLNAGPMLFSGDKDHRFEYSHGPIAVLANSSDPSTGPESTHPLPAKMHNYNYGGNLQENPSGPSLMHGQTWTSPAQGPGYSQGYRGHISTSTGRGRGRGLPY
# Chain of Cyclin-dependent kinase 13/Cyclin-K (O75909 whole entry, further chain, the tested form may be a part): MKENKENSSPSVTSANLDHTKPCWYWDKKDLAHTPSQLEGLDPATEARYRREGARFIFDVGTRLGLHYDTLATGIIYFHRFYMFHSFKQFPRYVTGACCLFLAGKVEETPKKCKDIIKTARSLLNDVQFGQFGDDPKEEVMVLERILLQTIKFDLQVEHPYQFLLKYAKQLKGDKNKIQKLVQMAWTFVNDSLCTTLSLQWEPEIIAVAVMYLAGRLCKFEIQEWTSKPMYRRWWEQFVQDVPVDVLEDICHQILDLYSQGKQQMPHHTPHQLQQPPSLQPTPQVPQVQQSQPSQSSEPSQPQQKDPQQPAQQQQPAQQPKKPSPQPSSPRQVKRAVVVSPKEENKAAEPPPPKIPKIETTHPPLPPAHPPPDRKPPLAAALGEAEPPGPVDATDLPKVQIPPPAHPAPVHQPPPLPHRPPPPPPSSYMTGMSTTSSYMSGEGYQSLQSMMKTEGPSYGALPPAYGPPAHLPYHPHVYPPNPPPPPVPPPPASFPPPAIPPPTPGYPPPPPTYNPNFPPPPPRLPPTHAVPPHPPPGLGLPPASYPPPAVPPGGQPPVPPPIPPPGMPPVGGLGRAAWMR
# MDA-MB-231 [7] = assay: Induction of cell cycle arrest in human MDA-MB-231 cells assessed as accumulation of cells in G0/G1 phase at 3 uM incubated for 48 hrs by RNase/propidium iodide staining based flow cytometry analysis (reference value: 26.2%); type: functional
# MDA-MB-231 [8] = assay: Induction of cell cycle arrest in human MDA-MB-231 cells assessed as accumulation of cells in G2/M phase at 3 uM incubated for 48 hrs by RNase/propidium iodide staining based flow cytometry analysis (reference value: 2.7%); type: functional
# MDA-MB-231 [9] = assay: Induction of apoptosis in human MDA-MB-231 cells assessed as necrotic cells at 3 uM measured after 48 hrs by Annexin V-FITC/PI staining based flow cytometric analysis (reference value: 0.58%); type: functional
# MDA-MB-231 [10] = assay: Induction of apoptosis in human MDA-MB-231 cells assessed as late apoptotic cells at 3 uM measured after 48 hrs by Annexin V-FITC/PI staining based flow cytometric analysis (reference value: 1.06%); type: functional
# MDA-MB-231 [11] = assay: Induction of apoptosis in human MDA-MB-231 cells assessed as viable cells at 3 uM measured after 48 hrs by Annexin V-FITC/PI staining based flow cytometric analysis (reference value: 98.04%); type: functional; conditions: read-out: Activity
# MDA-MB-231 [12] = assay: Induction of apoptosis in human MDA-MB-231 cells assessed as necrotic cells at 1 uM measured after 48 hrs by Annexin V-FITC/PI staining based flow cytometric analysis (reference value: 0.58%); type: functional
# [13] = target: T2, Tyrosine-protein phosphatase non-receptor type 11 (Homo sapiens) (UniProt Q06124); assay: Inhibition of SHP2 downstream signalling in human MDA-MB-231 cells assessed as decrease in pERK1/2 protein level measured after 72 hrs by Western blot analysis; type: cell-based; conditions: dose 1.25-20 µM, DDE = dose-dependent effect
# T2 sequence (whole entry): T1 sequence (Q06124 whole entry)
# MDA-MB-231 [14] = assay: Upregulation of p-STAT3 protein expression in human MDA-MB-231 cells at 0.25 to 20 uM measured after 72 hrs by Western blot analysis; type: functional, cell-based; conditions: dose 0.25-20 µM
# EMT6 [15] = assay: Antitumor activity against mouse EMT6 cells implanted in BALB/c mouse syngenic model assessed as downregulation of pERK level in tumor at 20 mg/kg, po bid measured after 18 days by immunohistochemical analysis; type: functional, organism-based; conditions: time 18.0 day
# EMT6 [16] = assay: Antitumor activity against mouse EMT6 cells implanted in BALB/c mouse syngenic model assessed as downregulation of p-retinoblastoma level in tumor at 20 mg/kg, po bid measured after 18 days by immunohistochemical analysis; type: functional, organism-based; conditions: time 18.0 day
# EMT6 [17] = assay: Antitumor activity against mouse EMT6 cells implanted in BALB/c mouse syngenic model assessed as increase in infiltration of CD8 positive T cells into tumors at 20 mg/kg, po bid measured after 18 days by immunohistochemical analysis; type: functional, organism-based; conditions: time 18.0 day
smiles,measurement,setting,value
Cc1nc2c(F)cc(-c3nc(Nc4nccc(Sc5cnc(N6CCC7(CC6)CO[C@@H](C)[C@H]7N)cn5)c4Cl)ncc3F)cc2n1C(C)C,IC50,[1],0.0043 µM
same,IC50,EMT6 [2],0.64 µM
same,IC50,[3],> 20 µM
same,IC50,[4],0.21 µM
same,IC50,CDK2/Cyclin-E2,0.464 µM
same,IC50,CDK3/Cyclin E,> 1 µM
same,IC50,CDK4/Cyclin D3,0.0182 µM
same,IC50,[5],0.968 µM
same,IC50,[6],> 1 µM
same,Activity,MDA-MB-231 [7],58.9%
same,Activity,MDA-MB-231 [8],1.5%
same,Activity,MDA-MB-231 [9],1.25%
same,Activity,MDA-MB-231 [10],7.25%
same,viability at 3 µM,MDA-MB-231 [11],82%
same,Activity,MDA-MB-231 [12],1.16%
same,inhibition,[13],Dde
same,Activity,MDA-MB-231 [14],Active
same,Activity,EMT6 [15],Active
same,Activity,EMT6 [16],Active
same,Activity,EMT6 [17],Active
